Measured values from patent US20250197799A1, “CELLS DERIVED FROM POLYPEDILUM VANDERPLANKI AND ODOR SENSOR EQUIPPED THEREWITH” (University of Maryland, College Park, priority 2022, published 2025).

Tests used:
Orco-Or47a [1] = target: T1, Orco-Or47a (Drosophila melanogaster, UniProt P81921+Q9VNB5); assay: Exogenous membrane protein function before drying and after drying-rehydration, Orco-Or47a stable expression cell line; type: cell-based; parameters: remnant residues; expressed in transfected cells; host or cells: Pv11 cells (Polypedilum vanderplanki), CRIS-PITCh knock-in at the Pv.00443 locus downstream of the 121 promoter, Zeocin selection and single-cell sorting; conditions: before drying
T1 sequence (Q9VNB5 1-486): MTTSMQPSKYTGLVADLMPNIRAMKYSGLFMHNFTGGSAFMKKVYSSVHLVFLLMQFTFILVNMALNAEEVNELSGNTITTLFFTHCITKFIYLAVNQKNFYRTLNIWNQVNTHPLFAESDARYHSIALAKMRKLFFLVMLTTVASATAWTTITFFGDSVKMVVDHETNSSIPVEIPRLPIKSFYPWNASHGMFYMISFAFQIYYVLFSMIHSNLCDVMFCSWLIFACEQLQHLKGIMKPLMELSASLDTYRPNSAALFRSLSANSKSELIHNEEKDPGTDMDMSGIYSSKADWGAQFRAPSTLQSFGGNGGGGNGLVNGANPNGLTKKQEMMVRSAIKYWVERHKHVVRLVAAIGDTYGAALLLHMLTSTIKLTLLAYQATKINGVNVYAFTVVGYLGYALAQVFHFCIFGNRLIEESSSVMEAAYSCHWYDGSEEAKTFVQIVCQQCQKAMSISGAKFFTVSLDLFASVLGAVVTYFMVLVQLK
T1 sequence (P81921 1-385): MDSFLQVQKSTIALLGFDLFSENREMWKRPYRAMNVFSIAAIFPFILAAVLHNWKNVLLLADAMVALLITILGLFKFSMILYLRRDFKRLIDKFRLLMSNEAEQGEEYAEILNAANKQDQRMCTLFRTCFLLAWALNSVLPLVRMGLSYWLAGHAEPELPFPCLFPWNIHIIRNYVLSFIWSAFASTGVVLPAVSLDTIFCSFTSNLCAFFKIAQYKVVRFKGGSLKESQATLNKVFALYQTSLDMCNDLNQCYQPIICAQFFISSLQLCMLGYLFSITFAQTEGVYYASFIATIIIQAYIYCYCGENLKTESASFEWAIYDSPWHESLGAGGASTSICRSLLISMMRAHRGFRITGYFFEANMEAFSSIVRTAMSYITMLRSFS
Description: To assess the drought tolerance of the cell lines, the cells were dried according to the following protocol. 4×10^7 Pv11-GCaMP6f stable expression cell lines were centrifuged at 700 g for 3 minutes and the supernatant removed. The precipitated cells were suspended in a 600 mM trehalose mix of 600 mM trehalose and IPL-41 medium at a ratio of 9:1, transferred to a 2 ml flask, and incubated at 25° C. for 48 hours. After 48 hours, the obtained cells were centrifuged at 700 g for 3 minutes and the supernatant was removed. The sedimented cells were suspended in 400 μl of 600 mM trebalose mix, and 40 μl were dropped onto a 35 mm dish. The 35 mm dish was dried for 10 days under conditions of 25° C. and humidity of 10% or less.
6. Assessment of exogenous membrane protein function after drying-rehydration. Using the Orco stable expression cell line and Orco-Or47a stable expression cell line, in order to assess the function of exogenous membrane proteins before drying and after 1 hour of rehydration after drying, fluorescence intensity generated in response to stimulation with VUAA1 (Orco agonist) or pentyl acetate (ligand of Or47a) was measured in the same manner as in 3.2 above.
The fluorescence intensity was digitized from the photograph, and ΔF/F was calculated according to the following formula:
Where the summation Σi=1^n is over the n cells in the image, Fi,after means the fluorescence intensity of the cell i after adding the ligand solution, and Fi,0 means the fluorescence intensity of the cell i before adding the ligand solution.
Specifically, a fluorescence image was taken under the condition in which the excitation wavelength/fluorescence wavelength was 488 nm/525 nm. In the fluorescence intensity quantification, the cells were identified in the photographed image, and the fluorescence intensity (F) was measured for each time. The initial values of fluorescence intensity (F0) were subtracted from the measured fluorescence intensity at each time to obtain the amount of change in fluorescence (ΔF), which was then normalized by dividing by the initial value of fluorescence intensity (F0) to obtain (Δ F/F0). A number of cells n were selected from the captured image, ΔF/F0 were produced for each, and the average value (including standard deviation, SD) of the results was graphed. For example, 25 cells were selected from the captured image, ΔF/F0 for each were produced, and the averaged results (including SD) were graphed. […] The Orco-Or47a stable expression cell line before drying responded to the Orco agonist (VUAA1) and the specific ligand of Or47a, pentyl acetate.

Pv11 cells = conditions: previous study; cited from earlier work
Orco-Or47a [2] = assay: Response after rehydration with cycloheximide treatment, Orco-Or47a stable expression cell line; type: cell-based, Drosophila melanogaster
Description: 7. Confirmation that exogenous membrane protein responses in Orco-Or47a stable expression cell lines immediately after rehydration are not due to de novo protein synthesis. To confirm that the membrane protein response of the Orco-Or47a stable expression cell line immediately after rehydration was not due to de novo protein synthesis, cells were treated with cycloheximide (CHX, a protein synthesis inhibitor).
A previous study reported that 0.35 mM of cycloheximide is able to inhibit protein production in Pv11 cells. Therefore, also in this experiment, cycloheximide was dissolved in IPL-41 medium so that the cycloheximide concentration was 0.35 mM. An IPL-41 medium with 0.01 mM, 0.07 mM and 0.7 mM cycloheximide was also prepared. […] One hour after rehydration and 24 hours after rehydration, the same operation as in 3.6 above was performed, and the fluorescence intensity was measured and analyzed. […] FIG. 7A and FIG. 7B are graphs showing changes in fluorescence intensity of the Orco-Or47a stable expression cell line response to VUAA1 and pentyl acetate, respectively, one hour after drying and rehydration. FIGS. 7C and 7D are graphs showing changes in fluorescence intensity, respectively, in response to VUAA1 and pentyl acetate of Orco-Or47a stable expression cell lines 24 hours after drying and rehydration.

[3] = system: GCaMP6f stable expression cell line; assay: Functionality of GCaMP6f with ionomycin; type: cell-based, Polypedilum vanderplanki; conditions: ionomycin final concentration 1 μM, DMSO 1%; DMSO negative control showed no increase
Description: 3.2 The functionality of GCaMP6f. The functionality of GCaMP6f in the resulting cell lines was evaluated using Ionomycin (Ionomycin; Fujifilm Wako Pure Chemical) to increase the intracellular concentration of calcium ions to provide functional confirmation of exogenous proteins in the GCaMP6f stable-expressing cell line. Ionomycin was dissolved in dimethyl sulfoxide (DMSO; Fujifilm Wako Pure Chemical Industries, Ltd.), adjusted to a final DMSO concentration of 1% and an ionomycin final concentration of 1 μM in IP1-41 medium, and added to the cell solution. As a negative control, DMSO was adjusted to a final concentration of 1% in IP 1-41 medium and added to the cell solution. Bright-field images and fluorescence images (ex: 470/40 nm; em: 525/50 nm) of the cells before and after solution addition were taken (all-in-one fluorescence microscope BZ-X710, Keyence). […] Therefore, it was confirmed that the expressed GCaMP6f functioned in the obtained stable expression cell line. For statistical analysis of fluorescence intensity, one-way ANOVA was performed using Prism8 (GraphPad), followed by Tukey's multiple comparison test as a post-hoc test, […]

Compound: CC(=O)c1ccccc1 [acetophenone]
- response as change in fluorescence intensity (ΔF/F0) (Orco-Or47a [1]): did not react

Compound: C[C@@H]1C[C@@H]([C@H](O)CC2CC(=O)NC(=O)C2)C(=O)[C@@H](C)C1 [cycloheximide]
- concentration able to inhibit protein production (Pv11 cells): 0.35 mM
- effect of cycloheximide on function of the exogenous membrane protein (Orco-Or47a [2]; 1 hour after rehydration, cycloheximide 0.01, 0.07, 0.35, 0.7 mM, response to VUAA1 or pentyl acetate): no significant difference
- effect of CHX treatment on response (Orco-Or47a [2]; 24 hours after rehydration, response to VUAA1 and pentyl acetate): less responsive

Compound: C[C@H](CCC(=O)O)C[C@H](C)C[C@H](C)C(=O)/C=C(\O)[C@H](C)C[C@H](C)C/C=C/[C@@H](C)[C@@H](O)[C@@H](C)[C@@H](O)C[C@@H]1CC[C@@](C)([C@H]2CC[C@@](C)([C@@H](C)O)O2)O1 [ionomycin, Ionomycin]
- fluorescence after addition [3]: stronger fluorescence than before the addition
